Source: patent US12006355B2, “Nanobodies against cystic fibrosis transmembrane conductance regulator (CFTR) inhibitory factor (Cif)” (priority 2017, dated 2024)
Several values for one entry are separate records, joined by “and”; a condition that tells them apart may be missing. Equal values may be shown once.

What was measured:
Cif [1] = biological target: T1, Cif (Pseudomonas aeruginosa, UniProt A0A0H2ZD27); assay: Competitive or displacement sandwich ELISA (dsELISA) with Nb 219; format: binding
T1 construct: made in house
Protocol: 2). Competitive or Displacement Sandwich assay. A 96-well plate was coated with pAb at 3 μg/mL, 100 μL per well at RT for 1 h. The plate was blocked with 1% skimmed milk in PBST at RT for at least 2 h. Cif in PBS was loaded at 20 ng/mL, 100 μL/well and incubated for 1 h at RT. Following 5 times wash with PBST, a serial dilution of small molecule synthetic inhibitors in PBS containing 20% methanol at 50 μL/well was loaded, followed by 50 μL/well of VHH at 0.1 μg/mL (or 5 ng/well) in PBS and incubated for 1 h at RT. Mouse anti-HA-HRP conjugate was added at 100 μl/well in a 1:3000 dilution as instructed by manufacturer. The plate was incubated for 1h at RT and washed 5 times. The plate was developed for 10 min with substrate solution added at 100 μl/well. The reaction was stopped by addition of 2M H2SO4 (50 μl/well) and absorbance was read at 450 nm. SigmaPlot 11.0 software was used for curve fitting and data analysis.
Development of nanobody-based screening assay. […] In this assay, the plate was coated with polyclonal anti-Cif antibody (pAb) that captured Cif-protein. Inhibitory anti-Cif Nb in role of a reporter was added at constant concentration together with a serial dilution of a tested inhibitor. […] In this assay, the amount of anti-Cif pAb loaded in the plate was optimized first. […] Second, the amount of Cif-protein captured on pAb was optimized. […] Both nanobodies 113 and 219 were evaluated in the inhibitory assay.

Cif [2] = biological target: T1, Cif; assay: Octet bio-layer interferometry; format: binding; conditions: steady state analysis, 30° C.
Protocol: Octet Bio-Layer Interferometry: KD of Cif and their inhibitors was determined by Bio-Layer Interferometry using an Octet Red instrument (ForteBio). Recombinant Cif-His was prepared as described previously (20,29). Stocks of purified proteins were stored at 4° C. until used.

Cif [3] = biological target: T1, Cif; assay: biochemical; conditions: Fluorescent assay IC50, Table 7, small molecule inhibitors
Protocol: Fluorescent-based Cif Inhibitory assay. Activity of enzyme was measured using a sensitive fluorescent-based assay similar to the method previously described for other EHs (29,30). Cyano(6-methoxynaphthalen-2-yl)methyl glycidyl carbonate (CMNGC) was used as a fluorescent reporter substrate. […] A schematic of the assay is depicted in FIG. 1.
Reported IC50 values are the average of triplicates with at least two data points above and at least two below the IC50. […] Control experiments without Cif (inhibitor/VHH and substrate) were used to evaluate the intrinsic fluorescence of inhibitors.

T1 sequence (A0A0H2ZD27 25-319 limits assumed): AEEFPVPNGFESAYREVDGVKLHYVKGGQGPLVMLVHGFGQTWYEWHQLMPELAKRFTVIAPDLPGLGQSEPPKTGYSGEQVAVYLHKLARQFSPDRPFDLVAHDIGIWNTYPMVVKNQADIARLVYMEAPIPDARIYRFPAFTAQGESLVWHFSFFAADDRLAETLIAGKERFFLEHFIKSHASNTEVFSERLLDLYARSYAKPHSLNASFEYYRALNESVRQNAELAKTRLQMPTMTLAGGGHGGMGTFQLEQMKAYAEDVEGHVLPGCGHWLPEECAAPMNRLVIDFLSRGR

Row | SMILES | EC50 (Cif [1]) [nM] | fold more potent than 8c (Cif [1]; nanobody-based inhibitory sandwich ELISA) [fold] | Kd (Cif [2]) | IC50 (Cif [3])
1 | CCC(=O)Nc1cc(Cl)c(Oc2ccc(O)c(-c3ccc(C(N)=O)c(F)c3)c2)c(Cl)c1 [Compound 8, 5′-(2,6-dichloro-4-propionamidophenoxy)-3-fluoro-2′-hydroxy-[1,1′-biphenyl]-4-carboxamide] | 200 | 1 | 160 nM and 200 nM | ~500 nM and 470 nM
2 | O=C(O)CC(=O)Nc1cc(Cl)c(Oc2ccc(O)cc2)c(Cl)c1 [Compound 1, 3-((3,5-dichloro-4-(4-hydroxyphenoxy)phenyl)amino)-3-oxopropanoic acid, reference compound] | > 200000 | – | – | > 50000 nM
3 | NC(=O)c1ccc(-c2cc(Oc3c(Cl)cc(N)cc3Cl)ccc2O)cc1 [Compound 7, 5′-(4-amino-2,6-dichlorophenoxy)-2′-hydroxy-[1,1′-biphenyl]-4-carboxamide] | 700 | – | 900 nM | ~500 nM and 550 nM
